The values that follow come from the Kinase Knowledgebase extract (Sharma et al. 2016).

PIK3CA (human), sequence (P42336 whole entry, looked up): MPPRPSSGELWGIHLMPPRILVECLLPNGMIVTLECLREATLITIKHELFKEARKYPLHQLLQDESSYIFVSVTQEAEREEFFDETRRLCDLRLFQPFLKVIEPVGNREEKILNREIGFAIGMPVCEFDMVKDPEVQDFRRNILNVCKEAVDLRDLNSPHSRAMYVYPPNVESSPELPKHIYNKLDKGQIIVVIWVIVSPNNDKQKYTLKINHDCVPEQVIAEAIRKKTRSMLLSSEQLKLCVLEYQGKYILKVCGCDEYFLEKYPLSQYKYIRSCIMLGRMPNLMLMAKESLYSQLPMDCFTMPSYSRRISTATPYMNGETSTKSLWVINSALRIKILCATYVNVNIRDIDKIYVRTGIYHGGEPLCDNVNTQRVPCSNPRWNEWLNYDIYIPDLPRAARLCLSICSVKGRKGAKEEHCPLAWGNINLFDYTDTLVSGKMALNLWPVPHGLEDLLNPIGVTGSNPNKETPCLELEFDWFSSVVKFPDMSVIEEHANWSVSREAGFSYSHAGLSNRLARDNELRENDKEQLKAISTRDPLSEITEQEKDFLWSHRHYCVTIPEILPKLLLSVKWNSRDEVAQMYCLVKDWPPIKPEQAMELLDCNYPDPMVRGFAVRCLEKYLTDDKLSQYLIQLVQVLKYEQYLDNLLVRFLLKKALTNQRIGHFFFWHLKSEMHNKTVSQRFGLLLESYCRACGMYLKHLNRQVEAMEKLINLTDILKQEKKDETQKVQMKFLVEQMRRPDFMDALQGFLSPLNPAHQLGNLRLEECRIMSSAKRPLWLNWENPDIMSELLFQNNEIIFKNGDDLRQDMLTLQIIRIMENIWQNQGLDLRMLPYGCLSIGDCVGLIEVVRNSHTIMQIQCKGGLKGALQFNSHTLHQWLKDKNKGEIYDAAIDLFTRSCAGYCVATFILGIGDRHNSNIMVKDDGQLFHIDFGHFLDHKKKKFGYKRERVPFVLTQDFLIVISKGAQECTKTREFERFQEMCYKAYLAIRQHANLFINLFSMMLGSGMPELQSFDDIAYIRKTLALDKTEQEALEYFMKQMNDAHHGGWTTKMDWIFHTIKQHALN

The test addresses PIK3CA (human) (UniProt P42336). Kind of test: Inhibition of PIK3CA Kinase Activity.
A word on the IC50: it is the concentration that gives 50% inhibition. Low values mean greater potency, high ones weaker potency. In turn, `Cc1nc2cc(-c3ccc4c(c3)CN(c3ncnc(C)c3Cc3ccc(F)cc3)CCO4)cnc2[nH]1` displayed an IC50 of 0.01 to 0.05 µM.

`c1cc(N2CCOc3ccc(-c4cnc5nc[nH]c5c4)cc3C2)ncn1` displayed an IC50 of 0.25 to 1 µM.

Compound `Cc1nc2ccc(-c3ccc4c(c3)CN(c3nc(CN(C)C)nc5c3CC(C)(C)CC5)CCO4)cc2[nH]1` returned an IC50 of at most 0.01 µM.

Consider `CC1(C)CCc2ncnc(N3CCOc4ccc(-c5cnc(N)c(S(=O)(=O)NCC(O)C(F)(F)F)c5)cc4C3)c2C1` (stereo not drawn), for which the IC50 fell in the range of 0.01 to 0.05 µM.

`CCNc1nc2ncc(-c3ccc4c(c3)CN(c3ccncn3)CCO4)cc2[nH]1` had a half-inhibitory concentration (IC50) of 0.05 to 0.25 µM.

The compound `Cc1nc(C)c(Cc2ccc(F)cc2)c(N2CCOc3ccc(-c4ccc5nc(C)[nH]c5c4)cc3C2)n1` returned an IC50 of 0.01 to 0.05 µM.

`CCNc1nc2ccc(-c3ccc4c(c3)CN(c3cc(C)nc5cc(F)ccc35)CCO4)cc2[nH]1` had an IC50 of at most 0.01 µM.

Consider `COC(=O)Nc1nc2ncc(-c3ccc4c(c3)CN(c3ncnc5c3CC(C)(C)CC5)CCO4)cc2[nH]1`, for which the IC50 was at most 0.01 µM.

`CNS(=O)(=O)c1cc(-c2ccc3c(c2)CN(c2ncnc4c2CC(C)(C)CC4)CCO3)cnc1N` had an IC50 of at most 0.01 µM.

`COc1cncc(-c2ccc3c(c2)CN(c2ncnc4c2CC(C)(C)CC4)CCO3)c1` displayed a 50% inhibitory concentration (IC50) of 0.25 to 1 µM.

The compound `CC(C)(O)CNS(=O)(=O)c1cc(-c2ccc3c(c2)CN(c2ncnc4c2CC(C)(C)CC4)CCO3)cnc1N` came in with an IC50 of 0.01 to 0.05 µM.

As to `c1ccc2c(N3CCOc4ccc(-c5cn[nH]c5)cc4C3)ccnc2c1`, the 50% inhibitory concentration (IC50) lay within 0.25 to 1 µM.

With `COc1ccc2c(N3CCOc4ccc(-c5ccc(NC(C)=O)cc5)cc4C3)nc(C)nc2c1`, the 50% inhibitory concentration (IC50) fell in the range of 0.25 to 1 µM.

`COc1ccc(-c2ccc3c(c2)CN(c2nc(CN(C)C)nc4c2CC(C)(C)CC4)CCO3)cc1S(C)(=O)=O` registered an IC50 of 0.01 to 0.05 µM.

For the compound `CC1(C)CCc2ncnc(N3CCOc4ccc(-c5cnc(N)c(S(=O)(=O)N6CCC(N)CC6)c5)cc4C3)c2C1`, the IC50 lay in the range of 0.01 to 0.05 µM.

With `CCc1nc(CN(C)C)nc(N2CCOc3ccc(-c4ccc5[nH]c(C)nc5c4)cc3C2)c1C`, the IC50 is 0.01 to 0.05 µM.

On to `COc1cc2c(N3CCOc4ccc(-c5ccc6nc(C)[nH]c6c5)cc4C3)ncnc2cc1OCc1ccccc1`, for which the IC50 was in the range of 0.25 to 1 µM.

`Cc1nc2ncc(-c3ccc4c(c3)CN(c3nc(CN)nc5c3CC(C)(C)CC5)CCO4)cc2[nH]1` returned an IC50 of at most 0.01 µM.

In turn, `Cc1ncnc(N2CCOc3ccc(-c4ccc(-c5ncc[nH]5)cc4)cc3C2)c1Cc1ccc(F)cc1` returned a 50% inhibitory concentration (IC50) of at most 0.01 µM.

In turn, `COCCNS(=O)(=O)c1cc(-c2ccc3c(c2)CN(c2ncnc4c2CC(C)(C)CC4)CCO3)cnc1N` displayed an IC50 of 0.01 to 0.05 µM.

In the case of `Cc1nc2ccc(-c3ccc4c(c3)CN(c3cc(C(F)(F)F)nc5ccccc35)CCO4)cc2[nH]1`, the 50% inhibitory concentration (IC50) is 0.05 to 0.25 µM.

As for `Cc1nc2ccc(-c3ccc4c(c3)CN(c3ccnc(C)c3Cc3ccccc3)CCO4)cc2[nH]1`, the IC50 was 0.01 to 0.05 µM.

On to `CCNc1nc2ncc(-c3ccc4c(c3)CN(c3ncnc5c3CC(C)(C)CC5)CCO4)cc2[nH]1`, for which the IC50 was at most 0.01 µM.

In turn, `Cc1nc2ccc(-c3ccc4c(c3)CN(c3ncnc5ccc(OCCCN(C)C)cc35)CCO4)cc2[nH]1` displayed a half-maximal inhibitory concentration (IC50) of 0.25 to 1 µM.

For `Nc1nc2ccc(-c3ccc4c(c3)CN(c3nc(-c5ccccc5)nc5ccccc35)CCO4)cc2[nH]1`, the IC50 was 0.05 to 0.25 µM.

`CC1(C)CCc2ncnc(N3CCOc4ccc(-c5cnc(N)c(S(=O)(=O)NC[C@@H]6CCCNC6)c5)cc4C3)c2C1` yielded an IC50 of 0.05 to 0.25 µM.

Consider `CNCc1nc2c(c(N3CCOc4ccc(-c5cnc6nc(C)[nH]c6c5)cc4C3)n1)CC(C)(C)CC2`, for which the IC50 is at most 0.01 µM.

Regarding `COc1ccc2c(N3CCOc4ccc(-c5ccc(-c6ncc[nH]6)cc5)cc4C3)nc(C)nc2c1`, the half-maximal inhibitory concentration (IC50) is at most 0.01 µM.

`Cc1nc2ccc(-c3ccc4c(c3)CN(c3ncnc(C)c3Cc3ccc(Cl)cc3)CCO4)cc2[nH]1` yielded an IC50 of 0.01 to 0.05 µM.

On to `Nc1nc2ncc(-c3ccc4c(c3)CN(c3ncnc5cccnc35)CCO4)cc2[nH]1`, for which the IC50 was in the range of 0.01 to 0.05 µM.

With `CC1(C)CCc2ncnc(N3CCOc4ccc(-c5cnc6nccnc6c5)cc4C3)c2C1`, the IC50 fell in the range of 0.25 to 1 µM.

The compound `Cc1nc2ncc(-c3ccc4c(c3)CN(c3ncnc5c3CC(C)(C)C=C5)CCO4)cc2[nH]1` yielded an IC50 of 0.01 to 0.05 µM.

In the case of `CC[C@H]1CCc2c(ncnc2N2CCOc3ccc(-c4cnc(N)c(S(=O)(=O)N5CCC(C)(N)C5)c4)cc3C2)C1` (stereo partly drawn), the IC50 was 0.01 to 0.05 µM.

As to `CC1(C)CCc2ncnc(N3CCOc4ccc(-c5cnc(Cl)c(OC(F)F)c5)cc4C3)c2C1`, the IC50 lay within 0.25 to 1 µM.

In the case of `CC[C@H]1CCc2c(nc(C)nc2N2CCOc3ccc(-c4cnc5nc(NC(=O)OC)[nH]c5c4)cc3C2)C1`, the IC50 was at most 0.01 µM.

Consider `CC(C)(N)CNS(=O)(=O)c1cc(-c2ccc3c(c2)CN(c2ncnc4c2CC(C)(C)CC4)CCO3)cnc1N`, for which the IC50 was in the range of 0.05 to 0.25 µM.

As to `CC1=Cc2ncnc(N3CCOc4ccc(-c5cnc6nc(C)[nH]c6c5)cc4C3)c2CC1(C)C`, the 50% inhibitory concentration (IC50) lay in the range of 0.01 to 0.05 µM.

The compound `CNc1ncc(-c2ccc3c(c2)CN(c2ncnc4c2CC(C)(C)CC4)CCO3)cc1S(=O)(=O)NCCO` had a 50% inhibitory concentration (IC50) of 0.01 to 0.05 µM.

`CNc1ncc(-c2ccc3c(c2)CN(c2ncnc4c2CC(C)(C)CC4)CCO3)cc1NS(C)(=O)=O` displayed a half-inhibitory concentration (IC50) of 0.05 to 0.25 µM.

`CNC(=O)c1ccc(-c2ccc3c(c2)CN(c2ncnc(C)c2Cc2ccc(F)cc2)CCO3)nc1` showed an IC50 of 0.25 to 1 µM.

Regarding `CN(c1cc(-c2ccc3c(c2)CN(c2ncnc4c2CC(C)(C)CC4)CCO3)cnc1Cl)S(C)(=O)=O`, the IC50 was in the range of 0.25 to 1 µM.

`CC(C)Nc1nc2ccc(-c3ccc4c(c3)CN(c3ccnc5ccccc35)CCO4)cc2[nH]1` registered an IC50 of 0.25 to 1 µM.

Regarding `Cc1nc2ccc(-c3ccc4c(c3)CN(c3ncnc5c(C#N)c6n(c35)CCCC6)CCO4)cc2[nH]1`, the IC50 is 0.05 to 0.25 µM.

Compound `CC1=Cc2ncnc(N3CCOc4ccc(-c5cnc(N)c(S(=O)(=O)NC[C@H]6CCN(C)C6)c5)cc4C3)c2CC1(C)C` yielded an IC50 of 0.01 to 0.05 µM.

Compound `CC1(C)CCc2ncnc(N3CCOc4ccc(-c5cnc(N)c(S(=O)(=O)N6CC[C@@H](O)C6)c5)cc4C3)c2C1` registered an IC50 of 0.01 to 0.05 µM.

For the compound `CCNc1nc2ccc(-c3ccc4c(c3)CN(c3ncnc5cc(OC)c(OC)cc35)CCO4)cc2[nH]1`, the concentration for half-maximal inhibition (IC50) was in the range of 0.01 to 0.05 µM.

Regarding `Cc1nc2ccc(-c3ccc4c(c3)CN(c3ccncn3)CCO4)cc2[nH]1`, the IC50 lay in the range of 0.25 to 1 µM.

With `CC1(C)CCc2ncnc(N3CCOc4ccc(-c5cnc(N)nc5)cc4C3)c2C1`, the IC50 lay in the range of 0.25 to 1 µM.

In the case of `CC1(C)CCc2ncnc(N3CCOc4ccc(-c5cnc(N)c(S(=O)(=O)N6CC(C)(N)C6)c5)cc4C3)c2C1`, the IC50 fell in the range of 0.01 to 0.05 µM.

`Cc1nc2ccc(-c3ccc4c(c3)CN(c3ncncc3C)CCO4)cc2[nH]1` gave an IC50 of 0.25 to 1 µM.

`Cc1nc2ncc(-c3ccc4c(c3)CN(c3ncnc(C)c3Br)CCO4)cc2[nH]1` returned an IC50 of 0.05 to 0.25 µM.

`CC(C)(CO)CNS(=O)(=O)c1cc(-c2ccc3c(c2)CN(c2ncnc4c2CC(C)(C)CC4)CCO3)cnc1N`: the half-maximal inhibitory concentration (IC50) was 0.05 to 0.25 µM.

With `COC(=O)Nc1nc2ccc(-c3ccc4c(c3)CN(c3nccc5ccccc35)CCO4)cc2[nH]1`, the IC50 lay in the range of 0.05 to 0.25 µM.

Turning to `CC1=Cc2ncnc(N3CCOc4ccc(-c5cnc(N)c(S(=O)(=O)NCC6CCN(C)CC6)c5)cc4C3)c2CC1(C)C`, the IC50 fell in the range of 0.05 to 0.25 µM.

As for `CC1(C)CCc2ncnc(N3CCOc4ccc(-c5cnc(N)c(S(=O)(=O)N6CCCC6)c5)cc4C3)c2C1`, the IC50 was in the range of 0.05 to 0.25 µM.

`CC1(C)CCc2ncnc(N3CCOc4ccc(-c5cnc(N)c(S(=O)(=O)NCCF)c5)cc4C3)c2C1` came in with an IC50 of at most 0.01 µM.

As for `Cc1nc2ncc(-c3ccc4c(c3)CN(c3nc(CNCC(F)(F)F)nc5c3CC(C)(C)CC5)CCO4)cc2[nH]1`, the IC50 lay within 0.05 to 0.25 µM.

Regarding `CCC1CCc2ncnc(N3CCOc4ccc(-c5ccc6nc(C)[nH]c6c5)cc4C3)c2C1` (stereo not drawn), the IC50 is 0.01 to 0.05 µM.

On to `COc1ccc2c(N3CCOc4ccc(-c5cnc(NC(C)=O)s5)cc4C3)nc(C)nc2c1`, for which the IC50 lay in the range of 0.01 to 0.05 µM.

As for `Cc1ncc(-c2ccc3c(c2)CN(c2ncnc4c2CCC(C)(C)C4)CCO3)s1`, the IC50 is 0.25 to 1 µM.

`COC(=O)Nc1nc2ccc(-c3ccc4c(c3)CN(c3ccnc5ccccc35)CCO4)cc2n1C` yielded an IC50 of 0.25 to 1 µM.

`COC(=O)Nc1nc2ccc(-c3ccc4c(c3)CN(c3ncnc5ccccc35)CCO4)cc2[nH]1` displayed a half-maximal inhibitory concentration (IC50) of 0.01 to 0.05 µM.

In turn, `CNCc1nc2ncc(-c3ccc4c(c3)CN(c3ncnc5c3CC(C)(C)CC5)CCO4)cc2[nH]1` came in with an IC50 of 0.05 to 0.25 µM.

Regarding `c1ccc2c(N3CCOc4ccc(-c5ccc6nc[nH]c6c5)cc4C3)ccnc2c1`, the IC50 was in the range of 0.01 to 0.05 µM.

Take `Cc1nc(CN(C)C)nc(N2CCOc3ccc(-c4cnc5sc(N)nc5c4)cc3C2)c1CC1CC1`: the IC50 is at most 0.01 µM.

With `Cc1ncnc(N2CCOc3ccc(-c4ccc5[nH]c(NCCF)nc5c4)cc3C2)c1Cc1ccc(F)cc1`, the IC50 was in the range of 0.01 to 0.05 µM.

With `Cc1ncnc(N2CCOc3ccc(-c4ccc(N)nn4)cc3C2)c1Cc1ccc(F)cc1`, the half-inhibitory concentration (IC50) lay within 0.25 to 1 µM.

For the compound `COc1c(OCC(C)C)ccc2c(N3CCOc4ccc(-c5ccc6nc(C)[nH]c6c5)cc4C3)ncnc12`, the IC50 lay within 0.05 to 0.25 µM.

With `COc1ccc2c(N3CCOc4ccc(-c5ccc(-c6c[nH]cn6)cc5)cc4C3)nc(C)nc2c1`, the 50% inhibitory concentration (IC50) was in the range of 0.05 to 0.25 µM.

`CC1(C)CCc2ncnc(N3CCOc4ccc(-c5cnc(N)c(S(=O)(=O)NCC6CNC6)c5)cc4C3)c2C1` showed an IC50 of 0.01 to 0.05 µM.

In the case of `CCNc1nc2ccc(-c3ccc4c(c3)CN(c3ncnc(C)c3Cc3ccc(F)cc3)CCO4)cc2[nH]1`, the IC50 was at most 0.01 µM.

`CN(C)CCNS(=O)(=O)c1cc(-c2ccc3c(c2)CN(c2ncnc4c2CC(C)(C)CC4)CCO3)cnc1N` came in with an IC50 of 0.05 to 0.25 µM.

`CC1(C)CCc2ncnc(N3CCOc4ccc(-c5cnc(N)c(S(=O)(=O)NC[C@H]6CCCN6)c5)cc4C3)c2C1` gave an IC50 of 0.05 to 0.25 µM.

Take `Cc1nc2ncc(-c3ccc4c(c3)CN(c3ncnc5c3CC[C@@H](C)C5)CCO4)cc2[nH]1`: the half-inhibitory concentration (IC50) was 0.05 to 0.25 µM.

In turn, `CCNc1nc2ccc(-c3ccc4c(c3)CN(c3nc(C)nc5cc(OC)ccc35)CCO4)cc2[nH]1` registered an IC50 of at most 0.01 µM.

In turn, `Cc1nc2c(F)c(-c3ccc4c(c3)CN(c3nc(CN(C)C)nc5c3CC(C)(C)CC5)CCO4)ccc2[nH]1` had an IC50 of 0.01 to 0.05 µM.

Compound `CC1(C)CCc2ncnc(N3CCOc4ccc(-c5cnc(O)c(S(=O)(=O)N6CC[C@H](N)C6)c5)cc4C3)c2C1` yielded an IC50 of 0.05 to 0.25 µM.

`Cc1nc2ccc(-c3ccc4c(c3)CN(c3ncnc5c3CCC(C)(C)C5)CCO4)cc2[nH]1` had a concentration for half-maximal inhibition (IC50) of 0.05 to 0.25 µM.
